These molecules were tested on Tripleurospermum inodorum (assay: Post-emergence herbicidal effect against MATIN). Conditions: 1280 g/ha, visual assessment about 3 weeks after treatment, 100% = plants have died, 0% = like control plants.
Assay type: in vivo
Procedure, shortened: (§1)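 Activity scored visually as percent damage relative to untreated plants (100% = dead) roughly 3 weeks post-spray. Plants at the one-leaf stage, 2–3 weeks old in sandy loam under greenhouse conditions, received WP/EC formulations in 600–800 l/ha water plus 0.2% wetting agent.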
`COC(=O)CN(C)C(=O)CSc1nn(-c2ccccc2F)c(-c2ccc(F)c(F)c2)c1Cl` [VII-002] was tested, and the “Post-emergence action against MATIN” value was 90%. For `CCOC(=O)CSc1nn(-c2ccccc2F)c(-c2ccc(F)c(F)c2)c1C#N` [Example I-012], the “Post-emergence action against MATIN” value was 90%.

The molecules below were run on Echinochloa crus-galli (assay: Post-emergence herbicidal effect against ECHCG). Conditions: 1280 g/ha, visual score after about 3 weeks, 100% = plants have died, 0% = like control plants.
Assay type: in vivo
Procedure, shortened: as §1
For `CCOC(=O)CSc1nn(-c2ccccc2F)c(-c2ccc(F)c(F)c2)c1C#N` [Example I-012], the “Post-emergence action against ECHCG” value was 100%.

What follows are molecules tested on Stellaria media (assay: Pre-emergence herbicidal effect against STEME). Conditions: 1280 g/ha, visual score after 3 weeks, 100% = plants have died, 0% = like control plants.
Assay type: in vivo
Procedure, shortened: (§2)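 Visual rating against untreated controls after 3 weeks in greenhouse, from 0% (no difference) to 100% (dead plants). Compound, as WP or EC with 0.2% wetting agent in 600 to 800 L/ha water, applied to covering soil over seeds sown in sandy loam.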
For `COC(=O)CN(C)C(=O)CSc1nn(-c2ccccc2F)c(-c2ccc(F)c(F)c2)c1Cl` [VII-002], the “Pre-emergence action against STEME” value was 100%. `CCOC(=O)CSc1nn(-c2ccccc2F)c(-c2ccc(F)c(F)c2)c1C#N` [Example I-012] was tested, and the “Pre-emergence action against STEME” value was 100%.

Each molecule was assayed on Tripleurospermum inodorum (assay: Pre-emergence herbicidal effect against MATIN). Conditions: 1280 g/ha, visual score after 3 weeks, 100% = plants have died, 0% = like control plants.
Assay type: in vivo
Procedure, shortened: as §2
With `CCOC(=O)CSc1nn(-c2ccccc2F)c(-c2ccc(F)c(F)c2)c1C#N` [Example I-012] the “Pre-emergence action against MATIN” value was 100%.

Each molecule was assayed on Lolium rigidum (assay: Pre-emergence herbicidal effect against LOLRI). Conditions: 1280 g/ha, visual score after 3 weeks, 100% = plants have died, 0% = like control plants.
Assay type: in vivo
Procedure, shortened: as §2
For `CCOC(=O)CSc1nn(-c2ccccc2F)c(-c2ccc(F)c(F)c2)c1C#N` [Example I-012], the “Pre-emergence action against LOLRI” value was 90%.

The molecules below were run on Stellaria media (assay: Post-emergence herbicidal effect against STEME). Conditions: 1280 g/ha, visual assessment about 3 weeks after treatment, 100% = plants have died, 0% = like control plants.
Assay type: in vivo
Procedure, shortened: as §1
`COC(=O)CN(C)C(=O)CSc1nn(-c2ccccc2F)c(-c2ccc(F)c(F)c2)c1Cl` [VII-002] was tested, and the “Post-emergence action against STEME” value was 90%. With `CCOC(=O)CSc1nn(-c2ccccc2F)c(-c2ccc(F)c(F)c2)c1C#N` [Example I-012] the “Post-emergence action against STEME” value was 100%.

These molecules were tested on Poa annua (assay: Post-emergence herbicidal effect against POAAN). Conditions: 1280 g/ha, visual assessment about 3 weeks after treatment, 100% = plants have died, 0% = like control plants.
Assay type: in vivo
Procedure, shortened: as §1
In the case of `COC(=O)CN(C)C(=O)CSc1nn(-c2ccccc2F)c(-c2ccc(F)c(F)c2)c1Cl` [VII-002], the “Post-emergence action against POAAN” value is reported as 100%. In the case of `CCOC(=O)CSc1nn(-c2ccccc2F)c(-c2ccc(F)c(F)c2)c1C#N` [Example I-012], the “Post-emergence action against POAAN” value is reported as 100%.

These molecules were tested on Digitaria sanguinalis (assay: Post-emergence herbicidal effect against DIGSA). Conditions: 1280 g/ha, visual score after about 3 weeks, 100% = plants have died, 0% = like control plants.
Assay type: in vivo
Procedure: (§3) [table] 2. Post-emergence herbicidal effect and crop plant compatibility Seeds of monocotyledonous and dicotyledonous weed and crop plants are laid out in sandy loam soil in wood-fibre pots, covered with soil and cultivated in a greenhouse under good growth conditions. 2 to 3 weeks after sowing, the test plants are treated at the one-leaf stage. The compounds of the invention, formulated in the form of wettable powders (WP) or as emulsion concentrates (EC), are then sprayed onto the green parts of the plants as aqueous suspension or emulsion at a water application rate equating to 600 to 800 l/ha with addition of 0.2% wetting agent. After the test plants have been left to stand in the greenhouse under optimal growth conditions for about 3 weeks, the action of the preparations is assessed visually in comparison to untreated controls (herbicidal action in percent (%): 100% activity=the plants have died, 0% activity=like control plants).
`CCOC(=O)CSc1nn(-c2ccccc2F)c(-c2ccc(F)c(F)c2)c1C#N` [Example I-012] was tested, and the “Post-emergence action against DIGSA” value was 100%.

What follows are molecules tested on Amaranthus retroflexus (assay: Post-emergence herbicidal effect against AMARE). Conditions: 1280 g/ha, visual assessment about 3 weeks after treatment, 100% = plants have died, 0% = like control plants.
Assay type: in vivo
Procedure: as §3
`CCOC(=O)CSc1nn(-c2ccccc2F)c(-c2ccc(F)c(F)c2)c1C#N` [Example I-012] was tested, and the “Post-emergence action against AMARE” value was 90%.

What follows are molecules tested on Veronica persica (assay: Post-emergence herbicidal effect against VERPE). Conditions: 1280 g/ha, visual assessment about 3 weeks after treatment, 100% = plants have died, 0% = like control plants.
Assay type: in vivo
Procedure, shortened: as §1
`COC(=O)CN(C)C(=O)CSc1nn(-c2ccccc2F)c(-c2ccc(F)c(F)c2)c1Cl` [VII-002] was tested, and the “Post-emergence action against VERPE” value was 90%. With `CCOC(=O)CSc1nn(-c2ccccc2F)c(-c2ccc(F)c(F)c2)c1C#N` [Example I-012] the “Post-emergence action against VERPE” value was 100%.

Each molecule was assayed on Bassia scoparia (assay: Post-emergence herbicidal effect against KCHSC). Conditions: 1280 g/ha, visual assessment about 3 weeks after treatment, 100% = plants have died, 0% = like control plants.
Assay type: in vivo
Procedure, shortened: as §1
For `CCOC(=O)CSc1nn(-c2ccccc2F)c(-c2ccc(F)c(F)c2)c1C#N` [Example I-012], the “Post-emergence action against KCHSC” value was 90%.

What follows are molecules tested on Alopecurus myosuroides (assay: Post-emergence herbicidal effect against ALOMY). Conditions: 1280 g/ha, visual score after about 3 weeks, 100% = plants have died, 0% = like control plants.
Assay type: in vivo
Procedure, shortened: as §1
In the case of `CCOC(=O)CSc1nn(-c2ccccc2F)c(-c2ccc(F)c(F)c2)c1C#N` [Example I-012], the “Post-emergence action against ALOMY” value is reported as 100%.

What follows are molecules tested on Echinochloa crus-galli (assay: Pre-emergence herbicidal effect against ECHCG). Conditions: 1280 g/ha, visual score after 3 weeks, 100% = plants have died, 0% = like control plants.
Assay type: in vivo
Procedure, shortened: as §2
With `COC(=O)CN(C)C(=O)CSc1nn(-c2ccccc2F)c(-c2ccc(F)c(F)c2)c1Cl` [VII-002] the “Pre-emergence action against ECHCG” value was 100%. With `CCOC(=O)CSc1nn(-c2ccccc2F)c(-c2ccc(F)c(F)c2)c1C#N` [Example I-012] the “Pre-emergence action against ECHCG” value was 100%.

Each molecule was assayed on Bassia scoparia (assay: Pre-emergence herbicidal effect against KCHSC). Conditions: 1280 g/ha, visual score after 3 weeks, 100% = plants have died, 0% = like control plants.
Assay type: in vivo
From the text: (§4) 1. Pre-emergence herbicidal effect and crop plant compatibility Seeds of monocotyledonous and dicotyledonous weed plants and crop plants are laid out in sandy loam soil in wood-fibre pots and covered with soil. The compounds of the invention, formulated in the form of wettable powders (WP) or as emulsion concentrates (EC), are then applied to the surface of the covering soil as aqueous suspension or emulsion at a water application rate equating to 600 to 800 L/ha with addition of 0.2% wetting agent. After the treatment, the pots are placed in a greenhouse and kept under good growth conditions for the trial plants. The damage to the test plants is scored visually after a test period of 3 weeks by comparison with untreated controls (herbicidal activity in percent (%): 100% activity=the plants have died, 0% activity=like control plants). [table]
In the case of `COC(=O)CN(C)C(=O)CSc1nn(-c2ccccc2F)c(-c2ccc(F)c(F)c2)c1Cl` [VII-002], the “Pre-emergence action against KCHSC” value is reported as 90%.

What follows are molecules tested on Amaranthus retroflexus (assay: Pre-emergence herbicidal effect against AMARE). Conditions: 1280 g/ha, visual score after 3 weeks, 100% = plants have died, 0% = like control plants.
Assay type: in vivo
From the text: as §4
For `CCOC(=O)CSc1nn(-c2ccccc2F)c(-c2ccc(F)c(F)c2)c1C#N` [Example I-012], the “Pre-emergence action against AMARE” value was 100%.

What follows are molecules tested on Setaria viridis (assay: Pre-emergence herbicidal effect against SETVI). Conditions: 1280 g/ha, visual score after 3 weeks, 100% = plants have died, 0% = like control plants.
Assay type: in vivo
Procedure, shortened: as §2
With `COC(=O)CN(C)C(=O)CSc1nn(-c2ccccc2F)c(-c2ccc(F)c(F)c2)c1Cl` [VII-002] the “Pre-emergence action against SETVI” value was 100%. For `CCOC(=O)CSc1nn(-c2ccccc2F)c(-c2ccc(F)c(F)c2)c1C#N` [Example I-012], the “Pre-emergence action against SETVI” value was 100%.

Each molecule was assayed on Poa annua (assay: Pre-emergence herbicidal effect against POAAN). Conditions: 1280 g/ha, visual score after 3 weeks, 100% = plants have died, 0% = like control plants.
Assay type: in vivo
Procedure, shortened: as §2
`CCOC(=O)CSc1nn(-c2ccccc2F)c(-c2ccc(F)c(F)c2)c1C#N` [Example I-012] was tested, and the “Pre-emergence action against POAAN” value was 100%.

These molecules were tested on Veronica persica (assay: Pre-emergence herbicidal effect against VERPE). Conditions: 1280 g/ha, visual score after 3 weeks, 100% = plants have died, 0% = like control plants.
Assay type: in vivo
Procedure, shortened: as §2
In the case of `COC(=O)CN(C)C(=O)CSc1nn(-c2ccccc2F)c(-c2ccc(F)c(F)c2)c1Cl` [VII-002], the “Pre-emergence action against VERPE” value is reported as 90%. With `CCOC(=O)CSc1nn(-c2ccccc2F)c(-c2ccc(F)c(F)c2)c1C#N` [Example I-012] the “Pre-emergence action against VERPE” value was 100%.

These molecules were tested on Digitaria sanguinalis (assay: Pre-emergence herbicidal effect against DIGSA). Conditions: 1280 g/ha, visual score after 3 weeks, 100% = plants have died, 0% = like control plants.
Assay type: in vivo
Procedure, shortened: as §2
In the case of `CCOC(=O)CSc1nn(-c2ccccc2F)c(-c2ccc(F)c(F)c2)c1C#N` [Example I-012], the “Pre-emergence action against DIGSA” value is reported as 100%.

What follows are molecules tested on Setaria viridis (assay: Post-emergence herbicidal effect against SETVI). Conditions: 1280 g/ha, visual assessment about 3 weeks after treatment, 100% = plants have died, 0% = like control plants.
Assay type: in vivo
Procedure, shortened: as §1
With `COC(=O)CN(C)C(=O)CSc1nn(-c2ccccc2F)c(-c2ccc(F)c(F)c2)c1Cl` [VII-002] the “Post-emergence action against SETVI” value was 90%. In the case of `CCOC(=O)CSc1nn(-c2ccccc2F)c(-c2ccc(F)c(F)c2)c1C#N` [Example I-012], the “Post-emergence action against SETVI” value is reported as 90%.
